Columns and labels:
[1] = organism: Gallus gallus; assay: Binding affinity to histone H1 containing chromatin in chicken erythroleukemic cells mononucleosomes transformed with Marek's virus by Scatchard plot analysis
[2] = organism: Gallus gallus; assay: Binding affinity to histone H1 depleted chromatin in chicken erythroleukemic cells mononucleosomes transformed with Marek's virus by Scatchard plot analysis

`COc1cccc2c1C(=O)c1c(O)c3c(c(O)c1C2=O)C[C@@](O)(C(C)=O)C[C@@H]3O[C@H]1C[C@H](N)[C@H](O)[C@H](C)O1` was tested. Which K [1] did it give?
Its K is 4.6 ×10⁴ /M.

And the K [2]?
Its K is 6.4 ×10⁴ /M.

Source: ChEMBL document CHEMBL1250493, “Interaction of daunomycin with acetylated chromatin” (J Med Chem, 2010)
